This is an account of results in publication PMC7188728, “A phase I study investigation of metabolism, and disposition of [^14C]-anlotinib after an oral administration in patients with advanced refractory solid tumors” (Cancer Chemotherapy and Pharmacology, 2020).

Where a name gives a salt, the structure may show the parent alone.

Data set [1] has as its system advanced refractory solid tumors. Nature of the data set: Tumor response evaluation in patients with advanced refractory solid tumors. As to conditions: six patients enrolled. The class given is in vivo, human.
The test system of data set [2] is human cytochrome P450 2C9. More on the design: method as in PMID 29441353. As to conditions: in vitro; read-out: Half maximum inhibitory concentration; cited from earlier work.
On the set-up of data set [3]: method as in PMID 29620050. As to conditions: rats and dogs; cited from earlier work.

On to `COc1cc2c(Oc3ccc4[nH]c(C)cc4c3F)ccnc2cc1OCC1(N)CC1` [anlotinib, 1-[[4-(4-fluoro-2-methyl-1H-indol-5-yloxy)-6-methoxyquinolin-7-yl]oxy]methyl) cyclopropanamine dihydrochloride], for which, in data set [1], the “Tumor response: partial response (PR)” value is “one” and the “Tumor response: progressive disease (PD)” value is reported as “one”. Moreover, in data set [2], the IC50 was 250 nM. In data set [3], the Absorption result is “absorbed quickly” and the Membrane permeability entry is “good membrane permeability”.
